The source of these data is ChEMBL document CHEMBL1201862, “PubChem BioAssay data set” (2004).

Experiment in all cases: NCI anticancer screen, dose series, 48 h
In test [1] the test system is NCI-H522.
For test [2], the system named is SK-MEL-2.
For test [3], the system named is DU-145.
Test [4] concerns OVCAR-5.
In test [5] the test system is PC-3.
In test [6] the test system is OVCAR-3.
Test [7] has as its system KM12.
In test [8] the test system is T47D.
For test [9], the system named is A498.
The test system of test [10] is COLO 205.
Test [11] has as its system HCC 2998.
The subject of test [12] is HOP-62.
In test [13] the test system is UO-31.
In test [14] the test system is K562.
The test system of test [15] is ACHN.
Test [16] has as its system LOX IMVI.
For test [17], the system named is SNB-75.
Test [18] relates to NCI-H226.
Test [19] deals with SR.

Values joined by “and” are separate entries in the source; they are usually repeats but may differ in a detail not shown here. Equal values may be shown once.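 Briefly, cells in 96-well plates were exposed to five compound concentrations for 48 h, and endpoints were estimated by linear interpolation. GI50 marks 50% less growth.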 Active and inactive are the calls of the source. Rule as the data show it: active = GI50 up to about 1.1 µM and inactive = higher.

As for `CCNC(=S)/N=c1\sc(NCC)nc2sc3c(c12)CCN(N1CCc2c(sc4nc(NCC)s/c(=N\C(=S)NCC)c24)C1)C3`, the GI50 in [1] was 65.6 µM (inactive); in test [2], > 100 µM (inactive); in test [3], 77.8 µM (inactive); in [4] it was > 100 µM (inactive); in test [5], > 100 µM (inactive); in test [6] it was > 100 µM (inactive). Further, the GI50 in test [7] was 40.2 µM (inactive); in [8] it was 42.4 µM (inactive); in test [9], 54 µM (inactive); in [10], 57.4 µM (inactive); in test [11], > 100 µM (inactive); in test [12], 57.3 µM (inactive). The GI50 in test [13] is > 100 µM (inactive); in test [14] it was 27.7 µM (inactive); in test [15], 62.8 µM (inactive); in test [16] it was 26 µM (inactive); in test [17], > 100 µM (inactive); in test [18], 24.9 µM (inactive). For the same molecule, in test [19], the GI50 is 30.5 µM (inactive).

`CC1OC(OC2C(OC(=O)[C@]34CCC(C)(C)C[C@H]3C3=CC[C@@H]5[C@@]6(C)CC[C@H](OC7OC(CO)C(O)C(O)C7OC7OC(CO)C(O)C(O)C7O)C(C)(C)[C@@H]6CC[C@@]5(C)[C@]3(C)CC4)OCC(O)C2O)C(O)C(O)C1OC1OCC(O)C(OC2OCC(O)C(O)C2O)C1O` (stereo not given in full): the GI50 was 2.65 µM (inactive) and 2.49 µM (inactive) in [1]; 3.01 µM (inactive) and 2.9 µM (inactive) in test [2]; 8.11 µM (inactive) and 7.05 µM (inactive) in [3]; 4.86 µM (inactive) and 5.37 µM (inactive) in [4]; 6.62 µM (inactive) and 5.32 µM (inactive) in test [5]; 10.7 µM (inactive) and 6.5 µM (inactive) in [6]. Also, the GI50 in test [7] is 3.74 µM (inactive) and 3.59 µM (inactive); in test [8], 4.13 µM (inactive) and 6.3 µM (inactive); in test [9], 2.17 µM (inactive) and 2.02 µM (inactive); in test [10], 1.78 µM (inactive) and 2.43 µM (inactive); in [11] it was 2 µM (inactive) and 1.76 µM (inactive); in test [13], 1.88 µM (inactive) and 1.99 µM (inactive). In addition, the GI50 in test [14] is 4.6 µM (inactive) and 3.77 µM (inactive); in test [15], 5.98 µM (inactive) and 4.8 µM (inactive); in test [16], 9.98 µM (inactive) and 11.1 µM (inactive); in [17], 7.93 µM (inactive) and 5.86 µM (inactive); in [18], 3.57 µM (inactive) and 3.8 µM (inactive); in test [19], 2.19 µM (inactive) and 3.06 µM (inactive).

As to `COc1cc(S(=O)(=O)Nc2ccc(-c3csc(N4C(=O)C(Cl)C4c4cccc(Oc5ccccc5)c4)n3)cc2)ccc1Cl` (stereo not given), the GI50 in test [1] is 1.69 µM (inactive); in [2], 31 µM (inactive); in test [3] it was 21.7 µM (inactive); in [4], 38.5 µM (inactive); in test [5], 17.1 µM (inactive); in test [6], 58.5 µM (inactive). In addition, the GI50 is 26.9 µM (inactive) in test [7]; 24.4 µM (inactive) in [8]; 25.2 µM (inactive) in test [9]; 21.5 µM (inactive) in test [10]; > 100 µM (inactive) in test [11]; 38.3 µM (inactive) in test [12]. In addition, the GI50 in [13] is 21.2 µM (inactive); in [14], 27.9 µM (inactive); in [15], 24 µM (inactive); in test [16], 2.24 µM (inactive); in test [17] it was 22.3 µM (inactive); in test [18] it was 18.8 µM (inactive). Further, the GI50 in [19] was 3.13 µM (inactive).

Regarding `OC(CC(O)(C(F)(F)Cl)C(F)(F)Cl)c1ccccc1` (stereo not given), the GI50 in [1], in test [2], in [3], in test [4], in test [5] and in test [6] was > 10 µM (inactive) each time. The GI50 in test [7] was > 10 µM (inactive); in [8], > 10 µM (inactive); in test [9], 0.0107 µM (active); in [10], > 10 µM (inactive); in [11] it was > 10 µM (inactive); in test [12], > 10 µM (inactive). The GI50 in test [14], in [15], in [16], in test [17], in test [18] and in test [19] was > 10 µM (inactive) throughout.

As to `S=C(N/N=C(\c1ccccc1)c1ccccn1)NC1CCCCC1`, the GI50 in test [1] is 1.94 µM (inactive); in [2], > 94.6 µM (inactive); in test [3], 29.3 µM (inactive); in test [4] it was > 88.1 µM (inactive); in [5], 1.4 µM (inactive); in test [6], 2.75 µM (inactive). The GI50 in test [7] was 13.1 µM (inactive); in test [8] it was 3.48 µM (inactive); in test [9], > 100 µM (inactive); in test [10], 0.543 µM (active); in test [11] it was > 61.4 µM (inactive); in [12], 12.2 µM (inactive). For the same molecule, the GI50 in test [13] was 12.9 µM (inactive); in test [14], 0.5 µM (active); in test [15], 0.571 µM (active); in test [16], 2.61 µM (inactive); in [17] it was 65.3 µM (inactive); in [18], 3.85 µM (inactive). In [19], the GI50 is > 26.1 µM (inactive).

Regarding `CN(C)CC1=Nc2cccc3cccc(c23)N1`, the GI50 in [1] is 1.89 µM (inactive); in [2] it was 17.4 µM (inactive); in test [3], 17.1 µM (inactive); in test [4], 17.4 µM (inactive); in test [5] it was 17 µM (inactive); in [6] it was 16.4 µM (inactive). In addition, the GI50 in test [7] was 25.6 µM (inactive); in [8], 6.11 µM (inactive); in [9], 14.9 µM (inactive); in [10] it was 2.95 µM (inactive); in [11], 17.2 µM (inactive); in test [12] it was > 100 µM (inactive). Besides, the GI50 in [13] was 9.16 µM (inactive); in test [14], 16.7 µM (inactive); in [15] it was 14.9 µM (inactive); in [16], 19.4 µM (inactive); in test [17] it was 16.7 µM (inactive); in test [18], 20.3 µM (inactive). Also, in [19], the GI50 was 17.9 µM (inactive).

In the case of `CCOC(=O)Nc1ccc2c(c1)c(CCCCCCc1nc3ccccc3c3ccc(NC(=O)OCC)cc13)nc1ccccc12`, the GI50 was 22.9 µM (inactive) in [1]; 29.9 µM (inactive) in test [2]; > 100 µM (inactive) in [3]; > 100 µM (inactive) in test [4]; > 100 µM (inactive) in [5]; 21.3 µM (inactive) in [6]. The GI50 in test [7] was > 100 µM (inactive); in test [8] it was > 100 µM (inactive); in test [9] it was 31.3 µM (inactive); in test [10] it was > 100 µM (inactive); in test [11] it was > 100 µM (inactive); in test [12] it was 27.7 µM (inactive). Besides, the GI50 in [13] is 68.4 µM (inactive); in [14], 80 µM (inactive); in [15] it was 39 µM (inactive); in test [16], 21.6 µM (inactive); in [17], 16.3 µM (inactive); in test [18], 23.9 µM (inactive). Further, the GI50 in [19] is > 100 µM (inactive).

For `CC(=O)Oc1ccc(-c2cc3ccccc3oc2=O)cc1OC(C)=O`, the GI50 in test [1] was 3.78 µM (inactive); in test [2] it was 38.5 µM (inactive); in [3], 24.9 µM (inactive); in test [4] it was 15.9 µM (inactive); in test [5] it was 47.5 µM (inactive); in [7], 11.8 µM (inactive). Besides, the GI50 was 36.2 µM (inactive) in [8]; 35.6 µM (inactive) in test [9]; 43.5 µM (inactive) in test [10]; 18.7 µM (inactive) in test [11]; 43.7 µM (inactive) in test [12]; 10.9 µM (inactive) in test [13]. The GI50 in [14] was 27.5 µM (inactive); in [15], 16.8 µM (inactive); in test [16] it was 30.5 µM (inactive); in test [17], 26.9 µM (inactive); in test [18] it was 53.1 µM (inactive); in test [19] it was 8.63 µM (inactive).

Turning to `CSc1ncnc2c1ncn2CCC(=O)OC(C)(C)C`, the GI50 in [1], in test [3], in [4], in [5], in test [6] and in test [7] was > 100 µM (inactive) in each case. In addition, the GI50 in test [8], in [9], in [10], in test [11], in [12] and in [13] was > 100 µM (inactive) each time. The GI50 in test [14], in [15], in [16], in test [17], in test [18] and in test [19] was > 100 µM (inactive) throughout.

With `COc1cc([C@@H]2c3cc4c(cc3[C@@H](Nc3ccc(/N=C\c5ccc(C(=O)O[C@@H](C(=O)O[C@H]6C[C@@]7(O)[C@@H](OC(=O)c8ccccc8)[C@@H]8[C@]9(OC(C)=O)CO[C@@H]9C[C@H](O)[C@@]8(C)C(=O)[C@H](OC(C)=O)C(=C6C)C7(C)C)[C@@H](NC(=O)c6ccccc6)c6ccccc6)cc5)cc3)[C@H]3COC(=O)[C@H]23)OCO4)cc(OC)c1O`, the GI50 was > 21.3 µM (inactive) in [1]; > 33.7 µM (inactive) in test [2]; 2.68 µM (inactive) in test [3]; 20.2 µM (inactive) in test [4]; > 46.1 µM (inactive) in test [5]; 15.9 µM (inactive) in test [6]. In addition, the GI50 in test [7] was 15.8 µM (inactive); in [8], 11.4 µM (inactive); in test [9], 0.196 µM (active); in test [10], 1.39 µM (inactive); in test [11] it was 14.9 µM (inactive); in test [12], 2.93 µM (inactive). Further, the GI50 in [14] was 2.28 µM (inactive); in [15], 0.455 µM (active); in test [16] it was 3.49 µM (inactive); in [17], 2.29 µM (inactive); in test [18] it was 1.57 µM (inactive); in test [19], 0.0102 µM (active).
